The text below walks through data of ChEMBL document CHEMBL1148809, “Biological evaluation, structure-activity relationships, and three-dimensional quantitative structure-activity relationship studies of dihydro-beta-agarofuran sesquiterpenes as modulators of P-glycoprotein-dependent multidrug resistance” (J Med Chem, 2007).

What is called Ki is the dissociation constant of the complex between target and ligand, obtained from inhibition or displacement. Broadly, the logP is the decadic logarithm of the partition coefficient of the neutral form, usually between octanol and water.

The target in data set [1] is ATP-dependent translocase ABCB1 (Homo sapiens, UniProt P08183). The experiment in a line: (§1) Inhibition of human Pgp-mediated DNR transport in NIH3T3 cells by microplate assay. Type of data set: cell-based, Mus musculus.
The target of another data set is P-gp (ABCB1) (Homo sapiens, UniProt P08183). The data set is described as §1. It is filed as cell-based, Mus musculus. The conditions noted are these: mouse, NIH3T3 cells expressing human P-gp, probe DNR; read-out: Imax.
Data set [2] is described as follows: Partition coefficient, log P of the compound. The conditions noted are these: octanol/water. Type of data set: physicochemical.

The structures appear in SMILES notation.

P-gp (ABCB1), sequence (P08183 whole entry): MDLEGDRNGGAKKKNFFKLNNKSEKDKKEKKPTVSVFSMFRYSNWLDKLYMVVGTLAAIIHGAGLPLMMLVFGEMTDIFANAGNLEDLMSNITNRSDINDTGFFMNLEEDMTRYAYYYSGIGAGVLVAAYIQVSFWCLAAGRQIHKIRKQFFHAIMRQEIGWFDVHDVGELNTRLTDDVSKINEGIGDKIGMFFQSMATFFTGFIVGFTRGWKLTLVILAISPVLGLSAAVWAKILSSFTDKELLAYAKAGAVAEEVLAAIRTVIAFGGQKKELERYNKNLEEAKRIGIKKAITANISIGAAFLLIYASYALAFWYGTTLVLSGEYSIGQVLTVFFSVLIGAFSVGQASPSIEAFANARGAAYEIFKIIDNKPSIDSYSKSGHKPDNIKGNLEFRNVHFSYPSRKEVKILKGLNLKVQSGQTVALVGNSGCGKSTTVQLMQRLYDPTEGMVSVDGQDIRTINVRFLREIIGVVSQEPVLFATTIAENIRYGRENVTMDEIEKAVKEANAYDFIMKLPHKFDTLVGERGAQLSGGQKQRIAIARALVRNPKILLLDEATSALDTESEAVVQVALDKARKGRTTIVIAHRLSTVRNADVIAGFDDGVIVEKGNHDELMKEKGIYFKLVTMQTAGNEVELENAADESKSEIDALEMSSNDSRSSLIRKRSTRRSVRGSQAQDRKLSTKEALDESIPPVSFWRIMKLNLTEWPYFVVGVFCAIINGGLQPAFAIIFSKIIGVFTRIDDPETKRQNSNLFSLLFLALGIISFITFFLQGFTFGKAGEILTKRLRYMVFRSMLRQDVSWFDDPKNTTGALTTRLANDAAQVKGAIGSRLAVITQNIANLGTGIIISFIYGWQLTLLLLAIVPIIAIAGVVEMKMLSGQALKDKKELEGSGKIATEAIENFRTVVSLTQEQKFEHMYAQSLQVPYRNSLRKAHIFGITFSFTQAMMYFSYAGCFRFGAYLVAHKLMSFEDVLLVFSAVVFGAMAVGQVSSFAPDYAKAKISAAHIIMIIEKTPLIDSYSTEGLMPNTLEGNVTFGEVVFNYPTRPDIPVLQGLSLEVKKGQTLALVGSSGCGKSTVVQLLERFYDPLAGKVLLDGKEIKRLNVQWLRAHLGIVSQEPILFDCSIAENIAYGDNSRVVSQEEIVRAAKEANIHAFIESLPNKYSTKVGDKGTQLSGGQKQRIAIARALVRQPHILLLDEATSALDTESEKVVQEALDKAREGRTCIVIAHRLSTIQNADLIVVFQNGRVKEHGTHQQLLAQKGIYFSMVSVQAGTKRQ
ATP-dependent translocase ABCB1, sequence (P08183 whole entry): as above

For the molecule `CCCCCO[C@H]1C[C@@](C)(O)[C@]23OC(C)(C)[C@H](C[C@H](OC(=O)c4ccco4)[C@]2(C)[C@H]1OC(C)=O)[C@H]3OC(=O)c1ccco1`, in data set [1] (read-out: Ki), the Ki was 570 nM. In addition, at P-gp (ABCB1), the Emax came out at 95.5%. For the same molecule, the log partition coefficient (logP) in data set [2] (read-out: LogP) was 6.6.
The like results for `CC(=O)O[C@H]1[C@@H](OC(=O)c2cccnc2)C[C@@](C)(O)[C@]23OC(C)(C)[C@H](C[C@H](OC(=O)c4ccco4)[C@]12C)[C@H]3OC(=O)c1ccco1` were, in that order, 7420 nM, 100% and 6.1.
Regarding `CC(=O)O[C@H]1[C@@H](OC(=O)c2ccccc2)C[C@@](C)(O)[C@]23OC(C)(C)[C@H](C[C@H](OC(=O)c4ccco4)[C@]12C)[C@H]3O`, the Ki in data set [1] (read-out: Ki) was found to be 2500 nM. Besides, on P-gp (ABCB1), the Emax turned out to be 68%. Besides, the logP in data set [2] (read-out: LogP) is 5.7.
The like results for `CC(=O)O[C@H]1C[C@@](C)(O)[C@]23OC(C)(C)[C@H](C[C@H](OC(=O)c4ccco4)[C@]2(C)[C@H]1OC(C)=O)[C@H]3O` were, in that order, 17500 nM, 100% and 3.4.
`CC(=O)O[C@H]1[C@@H](OC(=O)c2ccccc2)C[C@@](C)(O)[C@]23OC(C)(C)[C@H](C[C@H](OC(=O)c4ccco4)[C@]12C)[C@H]3OC(=O)c1cccc2ccccc12`: the Ki in data set [1] (read-out: Ki) was 4590 nM. On P-gp (ABCB1), the Emax is 54.8%. Also, in data set [2], the logP came to 9.6.
For `CC(=O)OC[C@]12[C@@H](OC(=O)c3ccco3)C[C@@H]3[C@@H](OC(C)=O)[C@]1(OC3(C)C)[C@](C)(O)C[C@H](OC(=O)c1ccco1)[C@@H]2OC(=O)c1ccco1`, the Ki in data set [1] (read-out: Ki) is 4510 nM. Moreover, at P-gp (ABCB1), the Emax is 99.4%. In data set [2] (read-out: LogP), the logP turned out to be 6.5.
The like results for `CC(=O)OC[C@]12[C@@H](OC(=O)c3ccccc3)C[C@@H]3[C@@H](OC(=O)c4ccccc4)[C@]1(OC3(C)C)[C@H](C)C[C@H](OC(=O)c1cccnc1)[C@@H]2OC(C)=O` were, in that order, 710 nM, 85.8% and 8.4.
The like results for `CC(=O)O[C@@H]1[C@H]2C[C@H](OC(=O)c3ccco3)[C@]3(C)[C@@H](OC(C)=O)[C@@H](OC(=O)c4ccco4)C[C@@](C)(O)[C@@]13OC2(C)C` were, in that order, 4130 nM, 61.7% and 5.1.
Regarding `CC(=O)O[C@H]1CC[C@@](C)(O)[C@]23OC(C)(C)[C@H](C[C@H](OC(=O)c4ccco4)[C@]12C)[C@H]3OC(=O)c1ccco1`, in data set [1] (read-out: Ki), the Ki is 6610 nM. The Emax at P-gp (ABCB1) stood at 96.3%. Moreover, the logP in data set [2] (read-out: LogP) was 5.3.
For `CC(=O)O[C@H]1C[C@@](C)(O)[C@]23OC(C)(C)[C@H]([C@H](OC(=O)c4ccccc4)[C@H](OC(=O)c4ccccc4)[C@]2(CO)[C@H]1OC(C)=O)[C@H]3OC(C)=O`, in data set [1] (read-out: Ki), the Ki was found to be 7040 nM. Besides, at P-gp (ABCB1), the Emax is 73%. For the same molecule, the logP in data set [2] (read-out: LogP) was 6.9.
The like results for `CC(=O)OC[C@]12[C@@H](OC(=O)c3ccccc3)C[C@@H]3[C@@H](OC(C)=O)[C@]1(OC3(C)C)[C@H](C)C[C@H](OC(C)=O)[C@@H]2OC(C)=O` were, in that order, 2360 nM, 80.8% and 5.7.
Consider `CC(=O)O[C@H]1[C@@H](OC(=O)c2ccco2)C[C@@](C)(O)[C@]23OC(C)(C)[C@H](C[C@H](OC(=O)c4ccco4)[C@]12C)[C@H]3O`, for which the Ki in data set [1] (read-out: Ki) worked out at 5530 nM. The Emax on P-gp (ABCB1) was determined as 41.2%. For the same molecule, in data set [2] (read-out: LogP), the logP is 4.7.
The like results for `CC(=O)O[C@H]1C[C@@](C)(O)[C@]23OC(C)(C)[C@H](C[C@H](OC(=O)c4ccco4)[C@]2(C)[C@H]1OC(C)=O)[C@H]3OC(=O)C(F)(F)F` were, in that order, 12100 nM, 34% and 4.1.
The like results for `CC(=O)O[C@H]1C[C@@](C)(O)[C@]23OC(C)(C)[C@H](C[C@H](OC(=O)c4ccco4)[C@]2(C)[C@H]1O)[C@H]3OC(=O)c1ccco1` were, in that order, 100000 nM, 100% and 4.3.
The like results for `CC(=O)O[C@@H]1[C@H]2C[C@H](OC(=O)c3ccco3)[C@]3(C)[C@@H](OC(C)=O)[C@@H](OC(=O)c4ccccc4)C[C@@](C)(O)[C@@]13OC2(C)C` were, in that order, 2920 nM, 92.7% and 6.1.
Turning to `CCCCCCCCCCCC(=O)O[C@@H]1[C@H]2C[C@H](OC(=O)c3ccco3)[C@]3(C)[C@@H](OC(C)=O)[C@@H](OC(C)=O)C[C@@](C)(O)[C@@]13OC2(C)C`, in data set [1] (read-out: Ki), the Ki amounted to 800 nM. For the same molecule, on P-gp (ABCB1), the Emax was determined as 72.7%. In data set [2], the logP was determined as 9.1.
`CC(=O)O[C@H]1C[C@@](C)(O)[C@]23OC(C)(C)[C@H](C[C@H](OC(=O)c4ccco4)[C@]2(C)[C@H]1OC(C)=O)[C@H]3OC(=O)c1cccc2ccccc12`: the inhibitory constant (Ki) in data set [1] (read-out: Ki) is 1650 nM. Further, on P-gp (ABCB1), the Emax was found to be 91.1%. Moreover, the logP in data set [2] (read-out: LogP) worked out at 7.3.
Consider `CC(=O)O[C@H]1[C@@H](OC(=O)c2ccccc2)C[C@@](C)(O)[C@]23OC(C)(C)[C@H](C[C@H](OC(=O)c4ccco4)[C@]12C)[C@H]3OC(=O)C(F)(F)F`, for which, in data set [1] (read-out: Ki), the Ki was 1560 nM. Moreover, the Emax on P-gp (ABCB1) is 53.3%. Further, the log partition coefficient (logP) in data set [2] (read-out: LogP) was 6.4.
On to `CC(=O)OC[C@]12[C@@H](OC(=O)c3ccco3)C[C@@H]3[C@@H](OC(=O)c4ccco4)[C@]1(OC3(C)C)[C@](C)(O)C[C@H](OC(C)=O)[C@@H]2OC(C)=O`, for which the Ki in data set [1] (read-out: Ki) turned out to be 2440 nM. Also, the Emax on P-gp (ABCB1) came to 76.9%. For the same molecule, the logP in data set [2] (read-out: LogP) was 5.4.
The like results for `CC(=O)OC[C@]12[C@@H](OC(=O)c3ccccc3)C[C@@H]3[C@@H](OC(=O)c4ccccc4)[C@]1(OC3(C)C)[C@](C)(O)C[C@H](OC(C)=O)[C@@H]2OC(C)=O` were, in that order, 1500 nM, 100% and 7.3.
For `CCCCCO[C@H]1[C@@H](OC(=O)c2ccco2)C[C@@](C)(O)[C@]23OC(C)(C)[C@H](C[C@H](OC(=O)c4ccco4)[C@]12COC(C)=O)[C@H]3OC(C)=O`, the inhibitory constant (Ki) in data set [1] (read-out: Ki) was 1940 nM. For the same molecule, the Emax at P-gp (ABCB1) amounted to 91.3%. Also, the logP in data set [2] (read-out: LogP) came out at 6.9.
The like results for `CC(=O)OC[C@]12[C@@H](OC(=O)c3ccccc3)C[C@@H]3[C@@H](OC(=O)c4ccccc4)[C@]1(OC3(C)C)[C@](C)(O)C[C@H](OC(=O)c1cccnc1)[C@@H]2OC(C)=O` were, in that order, 580 nM, 100% and 8.2.
The like results for `CCCO[C@H]1C[C@@](C)(O)[C@]23OC(C)(C)[C@H](C[C@H](OC(=O)c4ccco4)[C@]2(C)[C@H]1OC(C)=O)[C@H]3OC(=O)c1ccco1` were, in that order, 1130 nM, 100% and 6.2.
Turning to `CC(=O)O[C@H]1C[C@@](C)(O)[C@]23OC(C)(C)[C@H](C[C@H](OC(=O)c4ccco4)[C@]2(C)[C@H]1OC(=O)c1ccccc1)[C@H]3OC(=O)c1ccco1`, the Ki in data set [1] (read-out: Ki) came to 3450 nM. Further, the Emax on P-gp (ABCB1) was 45.3%. For the same molecule, the logP in data set [2] (read-out: LogP) was 7.2.
The like results for `CC(=O)OC[C@]12[C@@H](OC(=O)c3ccccc3)[C@@H](OC(=O)c3ccccc3)[C@@H]3[C@@H](OC(C)=O)[C@]1(OC3(C)C)[C@](C)(O)C[C@H](OC(C)=O)[C@@H]2OC(C)=O` were, in that order, 1740 nM, 97% and 7.6.
`CC(=O)OC[C@]12[C@@H](OC(=O)c3ccccc3)C[C@@H]3[C@@H](OC(C)=O)[C@]1(OC3(C)C)[C@H](C)C[C@H](OC(=O)c1ccccc1)[C@@H]2OC(C)=O`: the Ki in data set [1] (read-out: Ki) was determined as 630 nM. The Emax at P-gp (ABCB1) came out at 88%. Also, the logP in data set [2] (read-out: LogP) was 7.7.
In the case of `CC(=O)OC[C@]12[C@@H](OC(=O)c3ccccc3)C[C@@H]3[C@@H](OC(C)=O)[C@]1(OC3(C)C)[C@](C)(O)C[C@H](OC(C)=O)[C@@H]2OC(C)=O`, the Ki in data set [1] (read-out: Ki) was 4390 nM; in data set [1] (read-out: Log Ki (converted)) it was 3470 nM. Also, on P-gp (ABCB1), the Emax came out at 85%. In addition, the lipophilicity (logP) in data set [2] (read-out: LogP) is 5.
On to `CC(=O)O[C@H]1C[C@@](C)(O)[C@]23OC(C)(C)[C@H](C[C@H](OC(=O)c4ccco4)[C@]2(C)[C@H]1OC(C)=O)[C@H]3OC(=O)C(C)(C)C`, for which, in data set [1] (read-out: Ki), the Ki was 960 nM. In addition, the Emax on P-gp (ABCB1) stood at 75.2%. In data set [2] (read-out: LogP), the logP was 5.
As for `CC(=O)O[C@H]1C[C@@](C)(O)[C@]23OC(C)(C)[C@H]([C@H](OC(=O)c4ccccc4)[C@H](OC(=O)c4ccccc4)[C@]2(C)[C@H]1OC(=O)c1ccccc1)[C@H]3OC(C)=O`, the Ki in data set [1] (read-out: Ki) worked out at 910 nM. The Emax on P-gp (ABCB1) came to 84.9%. The same molecule displayed a lipophilicity (logP) in data set [2] of 9.2.
In the case of `CC(=O)O[C@H]1C[C@@](C)(O)[C@]23OC(C)(C)[C@H](C[C@H](OC(=O)c4ccco4)[C@]2(C)[C@H]1OC(C)=O)[C@H]3OC(=O)c1ccccc1`, in data set [1] (read-out: Ki), the Ki stood at 8940 nM. Moreover, the Emax at P-gp (ABCB1) came out at 67.9%. Also, the logP in data set [2] (read-out: LogP) worked out at 6.1.
As to `CC(=O)O[C@H]1[C@@H](OC(=O)c2ccccc2)C[C@@](C)(O)[C@]23OC(C)(C)[C@H](C[C@H](OC(=O)c4ccco4)[C@]12C)[C@H]3OC(=O)c1ccco1`, the inhibitory constant (Ki) in data set [1] (read-out: Ki) is 700 nM. Also, the Emax at P-gp (ABCB1) worked out at 93.1%. Besides, the logP in data set [2] (read-out: LogP) amounted to 7.1.
The like results for `CC(=O)OC[C@]12[C@@H](OC(=O)c3ccccc3)[C@@H](OC(=O)c3ccccc3)[C@@H]3[C@@H](OC(C)=O)[C@]1(OC3(C)C)[C@H](C)C[C@H](OC(C)=O)[C@@H]2OC(C)=O` were, in that order, 1710 nM, 86.2% and 8.3.
The like results for `CC(=O)O[C@H]1[C@@H](OC(=O)c2ccccc2)C[C@@](C)(O)[C@]23OC(C)(C)[C@H](C[C@H](OC(=O)c4ccco4)[C@]12C)[C@H]3OC(=O)C(C)(C)C` were, in that order, 1040 nM, 90% and 7.3.
Consider `CCCCCCCCCCCC(=O)O[C@@H]1[C@H]2C[C@H](OC(=O)c3ccco3)[C@]3(C)[C@@H](OC(C)=O)[C@@H](OC(=O)c4ccccc4)C[C@@](C)(O)[C@@]13OC2(C)C`, for which the inhibition constant (Ki) in data set [1] (read-out: Ki) was 5160 nM. The Emax on P-gp (ABCB1) worked out at 29.2%. The logP in data set [2] is reported as 11.4.
